Experimental data published in ChEMBL document CHEMBL1147100, “Metronidazole plus rifampin sterilizes long-term dormant Mycobacterium tuberculosis” (Antimicrob Agents Chemother, 2007).
Calls of active or inactive are those of the source.

Experiments:
Type in all cases: functional, organism-based
[1] = system: Mycobacterium tuberculosis; assay: Bactericidal activity against 5-day old actively replicating Mycobacterium tuberculosis H37Rv in aerobic condition at 8 ug/ml by Wayne dormancy culture model
[2] = system: Mycobacterium tuberculosis; assay: Bactericidal activity against 26-day old non-replicating Mycobacterium tuberculosis H37Rv in anaerobic condition at 8 ug/ml after 4 days by Wayne dormancy culture model
[3] = system: Mycobacterium tuberculosis; assay: Bactericidal activity against 19-day old non-replicating Mycobacterium tuberculosis H37Rv in anaerobic condition at 8 ug/ml after 11 days by Wayne dormancy culture model
[4] = system: Mycobacterium tuberculosis; assay: Bactericidal activity against 26-day old non-replicating Mycobacterium tuberculosis H37Rv in anaerobic condition at 8 ug/ml after 1 day by Wayne dormancy culture model
[5] = system: Mycobacterium tuberculosis; assay: Bactericidal activity against 12-day old non-replicating Mycobacterium tuberculosis H37Rv in anaerobic condition at 8 ug/ml after 4 days by Wayne dormancy culture model
[6] = system: Mycobacterium tuberculosis; assay: Bactericidal activity against 19-day old non-replicating Mycobacterium tuberculosis H37Rv in anaerobic condition at 8 ug/ml after 4 days by Wayne dormancy culture model
[7] = system: Mycobacterium tuberculosis; assay: Bactericidal activity against 12-day old non-replicating Mycobacterium tuberculosis H37Rv in anaerobic condition at 8 ug/ml after 1 day by Wayne dormancy culture model
[8] = system: Mycobacterium tuberculosis; assay: Bactericidal activity against 26-day old non-replicating Mycobacterium tuberculosis H37Rv in anaerobic condition at 8 ug/ml after 11 days by Wayne dormancy culture model
[9] = system: Mycobacterium tuberculosis; assay: Bactericidal activity against 19-day old non-replicating Mycobacterium tuberculosis H37Rv in anaerobic condition at 8 ug/ml after 1 day by Wayne dormancy culture model
[10] = system: Mycobacterium tuberculosis; assay: Bactericidal activity against 12-day old non-replicating Mycobacterium tuberculosis H37Rv in anaerobic condition at 8 ug/ml after 11 days by Wayne dormancy culture model
[11] = system: Mycobacterium tuberculosis; assay: Bactericidal activity against 5-day old actively replicating Mycobacterium tuberculosis H37Rv in aerobic condition at 1 ug/ml after 1 day by Wayne dormancy culture model
[12] = system: Mycobacterium tuberculosis; assay: Bactericidal activity against 26-day old non-replicating Mycobacterium tuberculosis H37Rv at 1 ug/ml after 1 day by Wayne in anaerobic condition dormancy culture model
[13] = system: Mycobacterium tuberculosis; assay: Bactericidal activity against 12-day old non-replicating Mycobacterium tuberculosis H37Rv in anaerobic condition at 1 ug/ml after 4 days by Wayne dormancy culture model
[14] = system: Mycobacterium tuberculosis; assay: Bactericidal activity against 12-day old non-replicating Mycobacterium tuberculosis H37Rv in anaerobic condition at 1 ug/ml after 11 days by Wayne dormancy culture model
[15] = system: Mycobacterium tuberculosis; assay: Bactericidal activity against 19-day old non-replicating Mycobacterium tuberculosis H37Rv in anaerobic condition at 1 ug/ml after 4 days by Wayne dormancy culture model
[16] = system: Mycobacterium tuberculosis; assay: Bactericidal activity against 5-day old actively replicating Mycobacterium tuberculosis H37Rv in aerobic condition at 1 ug/ml after 11 days by Wayne dormancy culture model
[17] = system: Mycobacterium tuberculosis; assay: Bactericidal activity against 19-day old non-replicating Mycobacterium tuberculosis H37Rv in anaerobic condition at 1 ug/ml after 11 days by Wayne dormancy culture model
[18] = system: Mycobacterium tuberculosis; assay: Bactericidal activity against 5-day old actively replicating Mycobacterium tuberculosis H37Rv in aerobic condition at 1 ug/ml after 4 days by Wayne dormancy culture model
[19] = system: Mycobacterium tuberculosis; assay: Bactericidal activity against 26-day old non-replicating Mycobacterium tuberculosis H37Rv in anaerobic condition at 1 ug/ml after 11 days by Wayne dormancy culture model
[20] = system: Mycobacterium tuberculosis; assay: Bactericidal activity against 12-day old non-replicating Mycobacterium tuberculosis H37Rv in anaerobic condition at 1 ug/ml after 1 day by Wayne dormancy culture model
[21] = system: Mycobacterium tuberculosis; assay: Bactericidal activity against 19-day old non-replicating Mycobacterium tuberculosis H37Rv in anaerobic condition at 1 ug/ml after 1 day by Wayne dormancy culture model
[22] = system: Mycobacterium tuberculosis; assay: Bactericidal activity against 26-day old non-replicating Mycobacterium tuberculosis H37Rv in anaerobic condition at 1 ug/ml after 4 days by Wayne dormancy culture model

Measured: Activity

Cc1ncc([N+](=O)[O-])n1CCO
inactive: [1]
active: [2] | [3] | [4] | [5] | [6] | [7] | [8] | [9] | [10]

CO[C@H]1/C=C/O[C@@]2(C)Oc3c(C)c(O)c4c(O)c(c(/C=N/N5CCN(C)CC5)c(O)c4c3C2=O)NC(=O)/C(C)=C\C=C\[C@H](C)[C@H](O)[C@@H](C)[C@@H](O)[C@@H](C)[C@H](OC(C)=O)[C@@H]1C
active: [11] | [12] | [13] | [14] | [15] | [16] | [17] | [18] | [19] | [20] | [21] | [22]
